Test results reported in US20210115401A1, “Methods and Materials for the Generation of Regulatory T Cells” (LIFE TECHNLOGIES AS, priority 2006, published 2021).

Tested on: CD4+ T cells
Assay: Surface marker (CD4, CD25, CXCR3) and intracellular FOXP3 analysis of expanded CD4+ T cells
Assay type: cell-based
Procedure: 1) Isolate CD4+ T cells from peripheral blood or leukopheresis products by the use of Dynal® CD4 Positive isolation kit, Dynal® CD4 Negative Isolation kit, Dynabeads® MyPure™ CD4 T cell kit, or CD4 Microbeads MACS®.
2) Stimulate 1.5×10^6 CD4+ T cells with anti-CD3/CD28 Dynabeads (3:1 bead: T cell ratio) in X-vivo medium with 1000 U/ml IL-4 (optional), 20 U/ml IL-2 and 1 μM final concentration of Rapamycin. Total medium volume should be 1.5 ml per 1.5×10^6 CD4+ T cells in a 24 well plate. The protocol can be scaled up.
3) On day 2, add a 10× concentrate that contains 10,000 U/ml IL-4 (optional) and […]. Add this in a volume that is 10% of the initial culture volume.
4) On day 4, add the cytokine concentrate similar to day 2.
5) On day 6, add the 10× cytokine concentrate again and take an aliquot to count the cells. This is the first time that the culture should be disturbed. Based on the count adjust the cell concentration to 1×10^6 CD4 cell/ml. Split wells and add culture medium containing Rapamycin, 1000 U/ml IL-4 (optional), 20 U/ml IL-2 to maintain cell concentration at 0.5×10^6 cells/ml.
6) From day 7 to day 12 count the cells daily. Split wells and add culture medium containing Rapamycin, 1000 U/ml IL-4 (optional), 20 U/ml IL-2 to maintain the cell concentration at 0.5×10^6 cells/ml. On day 12 the beads are removed using a magnet.
7) On day 14-15 the cells can be analyzed for surface marker expression and functional properties.
CD4+ T cells were isolated from peripheral blood by negative and/or positive isolation as described in Example 1. After expansion with IL-2, +/−IL-4, CD3/CD28 Dynabeads®, with or without Rapamycin the expanded cells were analyzed for various surface markers (CD4, CD25, CD62L, CRTh2, CCR4, CXCR3, CCR7) and for intracellular FOXP3 expression and cytokine secretion. Suppressive capacity was analyzed in standard functional assays as described below.

CO[C@H]1C[C@@H]2CC[C@@H](C)[C@@](O)(O2)C(=O)C(=O)N2CCCC[C@H]2C(=O)O[C@H]([C@H](C)C[C@@H]2CC[C@@H](O)[C@H](OC)C2)CC(=O)[C@H](C)/C=C(\C)[C@@H](O)[C@@H](OC)C(=O)[C@H](C)C[C@H](C)/C=C/C=C/C=C/1C [Rapamycin]
expanded cells expressing high levels of CD25 (CD4+ T cells expanded with CD3/CD28 Dynabeads, IL-2, +/−IL-4 and Rapamycin): Approximately 70%
CD4+CD25+ T cells among expanded cells (flow cytometry, FIG. 2) (CD4+ T cells expanded with rapamycin, 20% in the absence of rapamycin): 80%
cells expressing FOXP3 after expansion (after expansion with or without Rapamycin, freshly isolated CD4+ T cells 10%): 10%
